In the supplement of paper PMC10307832:

Columns and labels:
Assay in all cases: relative viability (nuclei count vs DMSO), 5 days (fraction); higher = more cells survive
[1] = compound: CN1CCN(CC1)C2=CC(=C(C=C2)NC3=NC=C4C(=N3)N(C5=CC=CC=C5C(=O)N4C)C)OC [XMD8-85] + COc1cccc2cc(-c3nc([C@H]4CC[C@H](C(=O)O)CC4)n4ncnc(N)c34)[nH]c12 [OSI-027] (partner 0.5 µM)
Summary of the method: (§1)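 A single step with final 0.05% Triton X-100, 1% formaldehyde and 1 ug/ml Hoechst fixed the cells and stained nuclei 5 days after treatment. Lung cancer cell lines in 1536-well plates had been treated by pin tool the day after seeding with one drug alone or a fixed anchor-drug dose plus five library-drug doses (not always all listed) in √10 steps, and nuclei were counted on 4× images. Relative viability is the ratio of nuclei in treated wells to nuclei in vehicle wells, taken as the median of duplicate plates.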

[2] = compound: CN1CCN(CC1)C2=CC(=C(C=C2)NC3=NC=C4C(=N3)N(C5=CC=CC=C5C(=O)N4C)C)OC [XMD8-85] + CS(=O)(=O)N1CCN(Cc2cc3nc(-c4cccc5[nH]ncc45)nc(N4CCOCC4)c3s2)CC1 [Pictilisib] (partner 1 µM)
Summary of the method: as §1

[3] = compound: CN1CCN(CC1)C2=CC(=C(C=C2)NC3=NC=C4C(=N3)N(C5=CC=CC=C5C(=O)N4C)C)OC [XMD8-85] + C[C@]1(O)C[C@@H](c2nc(-c3ccc4ccc(-c5ccccc5)nc4c3)c3c(N)nccn32)C1 [Linsitinib] (partner 1 µM)
Summary of the method: as §1

[4] = compound: CN1CCN(CC1)C2=CC(=C(C=C2)NC3=NC=C4C(=N3)N(C5=CC=CC=C5C(=O)N4C)C)OC [XMD8-85] + Cc1cc(Nc2cc(N3CCN(C)CC3)nc(Sc3ccc(NC(=O)C4CC4)cc3)n2)n[nH]1 [Tozasertib] (partner 0.1 µM)
Summary of the method: as §1

Cell Line | relative viability ([1]; first compound 0.08 µM) | relative viability ([1]; first compound 0.253 µM) | relative viability ([1]; first compound 0.8 µM) | relative viability ([1]; first compound 2.53 µM) | relative viability ([1]; first compound 8 µM) | relative viability ([2]; first compound 0.08 µM) | relative viability ([2]; first compound 0.253 µM) | relative viability ([2]; first compound 0.8 µM) | relative viability ([2]; first compound 2.53 µM) | relative viability ([2]; first compound 8 µM) | relative viability ([3]; first compound 0.08 µM) | relative viability ([3]; first compound 0.253 µM) | relative viability ([3]; first compound 0.8 µM) | relative viability ([3]; first compound 2.53 µM) | relative viability ([3]; first compound 8 µM) | relative viability ([4]; first compound 0.08 µM) | relative viability ([4]; first compound 0.253 µM) | relative viability ([4]; first compound 0.8 µM) | relative viability ([4]; first compound 2.53 µM) | relative viability ([4]; first compound 8 µM)
NCI-H3122 | 0.867 | 1.02 | 1.34 | 1.08 | 0.532 | 0.687 | 0.573 | 0.649 | 0.646 | 0.611 | 1.03 | 0.95 | 1.03 | 1.06 | 1.09 | 0.427 | 0.453 | 0.373 | 0.237 | 0.177
NCI-H1703 |  |  |  |  |  | 0.236 | 0.234 | 0.269 | 0.229 | 0.196 | 0.496 | 1.1 |  | 0.773 | 0.641 |  |  |  |  | 
HCC-15 | 0.615 | 0.689 | 0.669 |  | 0.541 | 0.684 | 0.691 | 0.76 | 0.728 | 0.616 | 0.867 | 0.849 | 0.843 | 0.866 | 0.661 | 0.394 | 0.294 | 0.398 | 0.167 | 0.143
ChaGo-K-1 | 0.555 | 0.532 | 0.599 | 0.605 | 0.422 | 0.808 | 0.692 | 0.689 | 0.697 | 0.303 |  |  |  |  |  | 0.225 | 0.233 | 0.207 | 0.196 | 0.144
SW 900 | 0.583 | 0.623 | 0.581 | 0.553 | 0.304 |  |  |  |  |  |  |  |  |  |  | 0.553 | 0.657 | 0.557 | 0.424 | 0.312
NCI-H727 | 0.631 | 0.772 | 0.705 | 0.535 | 0.359 | 0.373 | 0.387 | 0.342 | 0.433 | 0.327 | 0.259 | 0.314 | 0.308 | 0.231 | 0.215 | 0.55 | 0.588 | 0.6 | 0.458 | 0.47
NCI-H596 | 0.69 | 0.918 | 0.773 | 0.795 |  | 0.392 | 0.396 | 0.359 | 0.397 | 0.354 | 0.956 | 1.12 | 1.08 | 0.961 | 0.628 | 0.75 | 0.834 | 0.975 | 0.728 | 0.488
NCI-H2347 | 0.447 | 0.382 | 0.421 | 0.578 | 0.454 | 0.637 | 0.531 | 0.555 | 0.437 | 0.604 | 0.91 | 0.923 | 0.808 | 1.04 | 0.796 | 0.497 | 0.438 | 0.545 | 0.516 | 0.386
NCI-H2126 | 0.603 | 0.696 | 0.739 | 0.855 | 0.624 | 0.503 | 0.497 | 0.531 | 0.522 | 0.429 | 0.69 |  | 0.766 | 0.726 | 0.681 | 0.831 | 0.843 | 0.901 | 0.735 | 0.533
HCC-78 | 0.367 | 0.334 | 0.391 | 0.35 | 0.286 | 0.267 | 0.22 | 0.228 | 0.206 | 0.192 | 0.594 | 0.532 | 0.445 | 0.443 | 0.382 | 0.407 | 0.465 | 0.397 | 0.434 | 0.296
NCI-H522 | 0.659 | 0.747 | 0.66 | 0.828 | 0.596 |  |  |  |  |  |  |  |  |  |  | 0.557 | 0.562 | 0.41 | 0.519 | 0.467
EBC-1 |  |  |  |  |  | 0.383 | 0.364 | 0.502 | 0.339 | 0.18 | 0.683 | 0.856 | 0.753 | 0.811 | 0.293 |  |  |  |  | 
NCI-H1650 | 0.674 | 0.47 | 0.599 | 0.637 | 0.357 | 0.508 | 0.501 | 0.64 | 0.539 | 0.226 |  |  |  |  |  | 0.358 | 0.409 | 0.413 | 0.216 | 0.177
NCI-H2170 | 0.676 | 0.685 | 0.739 |  | 0.613 | 0.26 | 0.341 | 0.335 | 0.305 | 0.289 |  |  |  |  |  | 0.681 | 0.671 | 0.731 | 0.639 | 0.456
NCI-H1299 |  |  |  |  |  | 0.651 | 0.908 | 0.874 | 0.643 | 0.367 | 0.881 | 1.06 | 0.973 | 0.981 | 0.654 |  |  |  |  | 
NCI-H1623 | 0.44 | 0.395 | 0.349 | 0.413 | 0.368 |  |  |  |  |  |  |  |  |  |  | 0.495 | 0.336 | 0.41 | 0.421 | 0.367
Calu-6 |  |  |  |  |  | 1.02 | 0.97 | 1.05 | 0.979 | 0.572 | 0.985 | 0.946 | 0.994 | 0.894 | 0.788 |  |  |  |  | 
NCI-H1563 | 0.819 |  | 0.755 | 0.715 | 0.789 | 0.703 | 0.652 | 0.646 | 0.663 | 0.62 | 1.2 | 1.26 | 1.13 | 1.27 | 0.844 |  |  |  |  | 
A549 |  |  |  |  |  | 0.517 | 0.516 | 0.591 |  | 0.483 | 0.602 | 0.476 | 0.579 | 0.592 | 0.594 |  |  |  |  | 
